Tests used:
PBMC = experiment: Proliferation of PBMCs, [3H]-thymidine incorporation; format: cell-based, human; details: donor 9 PBMC, 5 days, tritiated thymidine incorporation
[1] = tested on: CD3^+hCD1d/KRN7000 Tetramer^+ T cells; experiment: Expansion of CD3+ hCD1d/KRN7000 Tetramer+ T cells in PBMC culture, 7 days; format: cell-based, human
K562 = experiment: 51Cr cytotoxicity assay, Vα24+ T cell effectors, K562 targets; format: cell-based, human; details: targets pre-pulsed (FIG. 4)
Text: (§1) The cell lines U937 (histiocytic lymphoma), RAJI (Burkitt's B cell lymphoma), and K562 (erythroleukemia) were originally obtained from the American Type Culture Collection, ATCC (Mannassas, Va.) and were a gift from Dr. D. Green (La Jolla Institutive for Allergy and Immunology (LIAI), San Diego, Calif.). The T cell leukemia Jurkat cell line was obtained from Nobuaki Takahashi (Kirin Brewery Co., Ltd., Gunma, Japan). Cells were maintained in RPMI-1640 with 10% fetal calf serum (GibcoBRL), penicillin, streptomycin, 2-mercaptoethanol, and Hepes as described previously. For cytotoxic assays, cells were cultured at 1×10^5/ml with 50 ng/ml KRN7000, β-GalCer, or 0.5% DMSO (vehicle) for 16 hours prior to assay.
(§2) ^51Cr cytotoxicity assays were performed as follows. A total of 5×10^3 51Cr-labeled cells (Na2^51CrO3) (ICN Biomedicals, Inc.) from the U937, K562, or Jurkat cell line as the target cells and various numbers of effector Vα24^+ T cells in 0.2 ml of culture medium were seeded into round-bottom microtiter wells. The culture was incubated at 37° C. in an atmosphere containing 6% CO2 for 5 h, and 0.1 ml of supernatant was collected from each well. The percentage of specific ^51Cr release was calculated as follows: [(cpm experimental−cpm spontaneous release)/(cpm maximal release−cpm spontaneous release)]×100.

Jurkat tumor cells = experiment: 51Cr cytotoxicity assay, Vα24+ T cell effectors, Jurkat targets; format: cell-based, human; details: targets pulsed 16 hours with 50 ng/ml glycolipid (FIG. 4)
Text: as §1
as §2, with “release)]×100. […]” for “release)]×100.”

Molt-4 = experiment: 51Cr cytotoxicity assay, Vα24+ T cell effectors, Molt-4 targets; format: cell-based, human; details: data not shown
U937 = experiment: 51Cr cytotoxicity assay, Vα24+ T cell effectors, U937 targets; format: cell-based, human; details: targets pulsed 16 hours with 50 ng/ml glycolipid (FIG. 4)
Text: as §1, §2

RAJI = experiment: 51Cr cytotoxicity assay, Vα24+ T cell effectors, RAJI targets; format: cell-based, human; details: data not shown
Text: as §1, §2

| Compound | Proliferation, cpm (PBMC) | Proliferation, cpm (PBMC; listed as KRN7000 only) | % CD^3+ Tetramer^+ cells ([1]; PBMC 1×10^6/ml, 7 days, KRN7000 100 ng/ml, rhIL-2 10 ng/ml, rhIL-15 100 ng/ml, flow cytometry) [%] | number of Tetramer^+ cells ([1]; percentage × cells recovered, day 7) | lysis of glycolipid-pulsed K562 target cells by expanded Vα24^+ T cells (K562) | increase in Vα24/Vβ11 cells with autologous donor serum versus commercial pooled human serum (Vα24^+Vβ11^+ T cells; 3 donors, KRN7000 and rhIL-2, 7 days) | Percentage of Vα24/Vβ11 cells (Vα24^+Vβ11^+ T cells; donor 9 PBMC, 7 days, flow cytometry) [%] | Number of Vα24Vβ11 cells (Vα24^+Vβ11^+ T cells; donor 9 PBMC, day 7, cell recovery × percentage) | lysis of glycolipid-pulsed Jurkat target cells by CD4^+ and CD4^− expanded Vα24^+ T cells (Jurkat tumor cells) | killing of Molt-4 target cells by expanded Vα24^+ T cells (Molt-4) | lysis of glycolipid-pulsed U937 target cells by CD4^+ and CD4^− expanded Vα24^+ T cells (U937) | killing of RAJI target cells by expanded Vα24^+ T cells (RAJI) |
| --- | --- | --- | --- | --- | --- | --- | --- | --- | --- | --- | --- | --- |
| CCCCCCCCCCCCCCCCCCCCCCCCCC(=O)N[C@@H](CO[C@H]1O[C@H](CO)[C@H](O)[C@H](O)[C@H]1O)[C@H](O)[C@H](O)CCCCCCCCCCCCCC [KRN7000, (2S,3S,4R)-1-O-(alpha-D-Galactopyranosyl)-N-hexacosanoyl-2-amino-1,3,4-octadecanetriol] | little or no proliferation | 1,145 cpm | 0.03 | 312 | not lysed | up to 7 times | 0.25 | 2,125 | lysed | not killed | lysed | not killed |
| β-galactosylceramide [β-GalCer] | – | – | – | – | – | – | – | – | not lysed | – | not lysed | – |

Reference: patent US20030153073A1, “Expansion of T cells in vitro and expanded T cell populations” (priority 2001, published 2003)
